Patent EP0712936B1, “LOW-MOLECULAR DNA FROM STURGEON MILT, A METHOD OF OBTAINING THE DNA AND A PHARMACEUTICAL PREPARATION BASED ON IT” (NAUCHNO-PROIZVODSTVENNOE PREDPRIYATIE "FARMEK", priority 1993, dated 1994)
Like-named read-outs stand apart in the source and are kept apart here.

Experiments:
[1] = tested on: HIV; experiment: anti-HIV activity at different modes of administration, quantity of syncytia; assay type: in vivo; conditions: placebo 100
[2] = tested on: nonlinear white mice
[3] = tested on: HIV; assay type: cell-based; conditions: comparison preparation, no ratio
Experimental: (§1) The antiviral activity of preparations was assessed by the methods recommended for this purpose by the World Health Organization (20, 21). For this purpose we used the cultures of inoculated cell lines SEM and MT-4. The cells were cultured at a concentration of (0.03-0.05)x10^6 cells per 1 ml of PPM1 1640 with 10-% fetal serum of calves, 300 mg/ml of glutamine, 100 mkg/ml of heptamicine and grown in the form of a suspension. The vital activity of cells was checked by coloring them with a 0.4-% solution of trypan blue. The virus sources were strains HIV/IVS and HIV - 1 HTLV/IIIB.
(§2) The suspension of cells was placed into 24-hole boards, treated with different doses of the preparation and infected with HIV. The multiplicity of infection was 0.01 TCD50 per cell. Then the cultures were incubated at 37 C in the atmosphere containing 5% CO2 at a moisture content of 98% for 5-7 days before determining the cytopathic effect of the virus on the cell culture.
The formation of viral antigen was assessed by immuno-fermental analysis.
(§3) Then the cultures were incubated at 37 C in the atmosphere containing 5% of CO at a moisture content of 98% for 5-7 days before determining the cytopathic effect of the virus on the cell culture. The formation of viral antigen was assessed by an immunofermental analysis.

[4] = tested on: HIV; assay type: cell-based; conditions: comparison preparation, no ratio; remark: listed apart in the source
Experimental: as §1, §2
A culture of inoculated cells, line CEMSS and MT-4 was used in the experiment. […]
as §3

In the case of Cc1cn([C@H]2C[C@H](N=[N+]=[N-])[C@@H](CO)O2)c(=O)[nH]c1=O [AZT (azidothymidine), 3-azi-3-desoxythymidine], the “Qty of syncytia, %” value ([1]; intracerebral) is reported as 10%, the “Qty of syncytia, %” value ([1]; intranasal) is reported as 75% and the “quantity of survived mice / quantity of infected mice” value ([2]; intraabdominal, 5 mg/kg) is reported as 6/6. The “quantity of survived mice / quantity of infected mice” value ([2]; intraabdominal, 10 mg/kg) was 6/6, the “quantity of survived mice / quantity of infected mice” value ([2]; intraabdominal, 20 mg/kg) was 6/6 and the “quantity of survived mice / quantity of infected mice” value ([2]; intraabdominal, 35 mg/kg) was 6/6. The “quantity of survived mice / quantity of infected mice” value ([2]; intraabdominal, 50 mg/kg) was 6/6, the “quantity of survived mice / quantity of infected mice” value ([2]; intraabdominal, 75 mg/kg) was 6/6 and the mortality of mice ([2]; intracerebral introduction, doses from 10 to 50 mg/kg) was 50%. For the same molecule, the “quantity of survived mice / quantity of infected mice” value ([2]; intracerebral, 5 mg/kg) was 6/6, the “quantity of survived mice / quantity of infected mice” value ([2]; intracerebral, 10 mg/kg) was 6/6 and the “quantity of survived mice / quantity of infected mice” value ([2]; intracerebral, 20 mg/kg) was 6/6. For the same molecule, the “quantity of survived mice / quantity of infected mice” value ([2]; intracerebral, 35 mg/kg) was 6/6, the “quantity of survived mice / quantity of infected mice” value ([2]; intracerebral, 50 mg/kg) was 6/6 and the “quantity of survived mice / quantity of infected mice” value ([2]; intracerebral, 75 mg/kg) was 6/6. The “quantity of survived mice / quantity of infected mice” value ([2]; intranasal, 5 mg/kg) was 6/6, the “quantity of survived mice / quantity of infected mice” value ([2]; intranasal, 10 mg/kg) was 6/6 and the “quantity of survived mice / quantity of infected mice” value ([2]; intranasal, 20 mg/kg) was 6/6. The “quantity of survived mice / quantity of infected mice” value ([2]; intranasal, 35 mg/kg) was 6/6, the “quantity of survived mice / quantity of infected mice” value ([2]; intranasal, 50 mg/kg) was 6/6 and the “quantity of survived mice / quantity of infected mice” value ([2]; intranasal, 75 mg/kg) was 6/6. For the same molecule, the “quantity of survived mice / quantity of infected mice” value ([2]; subcutaneous, 5 mg/kg) was 6/6, the “quantity of survived mice / quantity of infected mice” value ([2]; subcutaneous, 10 mg/kg) was 6/6 and the “quantity of survived mice / quantity of infected mice” value ([2]; subcutaneous, 20 mg/kg) was 6/6. The “quantity of survived mice / quantity of infected mice” value ([2]; subcutaneous, 35 mg/kg) was 6/6, the “quantity of survived mice / quantity of infected mice” value ([2]; subcutaneous, 50 mg/kg) was 6/6 and the “quantity of survived mice / quantity of infected mice” value ([2]; subcutaneous, 75 mg/kg) was 6/6. The “Data of immuno-enzyme analysis” value [3] was 0.1 mg/mg, the “Data of immuno-enzyme analysis, optical density” value [3] was 0.091 and the “No of syncytia, % of virus control” value [4] was 8%.
